# According to patent publication US20260285898A1, “SAPONIN DERIVATIVES AS ADJUVANTS AND PHOTOAFFINITY PROBES” (ASOCIACIÓN CENTRO DE INVESTIGACIÓN COOPERATIVE EN …, priority 2023, published 2026):
# Test: Initial toxicity assessment in mice by median weight loss after injection
# Settings: monitored after each injection (1st, 2nd and 3rd booster dose); s.c., saponin 20 μg/mouse with OVA 10 μg/mouse; FIG. 1
# Description: Groups of five mice (C57BL/6, female, 6-8 weeks old) were vaccinated subcutaneously three times […] (days 0, 14, and 28) with endotoxin-free OVA (EndoFit™ Ovalbumin, Invitrogen) (10 μg/mouse) in phosphate-buffered saline (PBS, 100 μL) either alone (no-adjuvant control group) or with the synthetic saponins (20 μg/mouse). To analyze the antibody responses over time, mice were bled via the submandibular vein at the indicated pre- (day −1) and post-vaccination timepoint (day 21), and by cardiac puncture at the experimental endpoint (day 35). Blood was collected in BD Microtainer® tubes (Clot Activator/SST™ Gel) and centrifuged at 7500 g for 10 min, after which serum was harvested and stored at −20° C. until further analysis.
# As a standard initial overall assessment of the potential toxicity of the saponins, in addition to visual inspection for potential signs of discomfort, the weight loss of each group of mice was monitored before and after each immunization. The median percentage weight change at different timepoints post-injection was determined and analyzed.
# Mouse weight loss was monitored after each injection (1st, 2nd and 3rd (booster dose)).
smiles,measurement,value
CC1OC(OC2C(OC(=O)C34CCC(C)(C)CC3C3=CCC5C6(C)CCC(OC7OC(C(=O)O)C(O)C(OC8OCC(O)C(O)C8O)C7OC7OC(CO)C(O)C(O)C7O)C(C)(C=O)C6CCC5(C)C3(C)CC4O)OC(CO)C(NC(=O)CCCCCNC(=O)c3ccc(C(=O)c4ccc(C(=O)NCCOCCOCCOCCOCCOCCNC(=O)CCCCC5SCC6NC(=O)NC65)cc4)cc3)C2O)C(O)C(O)C1OC1OCC(O)C(O)C1O (stereo not shown) [BTS-25-BP],Mouse weight loss (toxicity),about 2%
